Test results from ChEMBL document CHEMBL1201862, “PubChem BioAssay data set” (2004).
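Compound exposure: 48 hours, 5 concentrations, 96-well plates. GI50 marks 50% less growth.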 Calls of active or inactive are those of the source. No stated cut-off is given here; in the data, active = GI50 up to about 1.1 µM and inactive = higher.

Legend:
Assay in all cases: growth of human tumour cells (NCI), 48 h
HOP-92 = system: HOP-92
TK-10 = system: TK-10
A498 = system: A498
HCC 2998 = system: HCC 2998
HCT-116 = system: HCT-116
HOP-62 = system: HOP-62
Malme-3M = system: Malme-3M
MDA-MB-231 = system: MDA-MB-231
SF-295 = system: SF-295
BT-549 = system: BT-549
SR = system: SR
UO-31 = system: UO-31
U-251 = system: U-251
SF-268 = system: SF-268
CCRF-CEM = system: CCRF-CEM
RXF 393 = system: RXF 393
Hs-578T = system: Hs-578T
HT-29 = system: HT-29
DU-145 = system: DU-145
PC-3 = system: PC-3
SK-OV-3 = system: SK-OV-3
786-0 = system: 786-0
T47D = system: T47D
CAKI-1 = system: CAKI-1
SK-MEL-5 = system: SK-MEL-5
IGROV-1 = system: IGROV-1
HCT-15 = system: HCT-15
COLO 205 = system: COLO 205
SW-620 = system: SW-620
MCF7 = system: MCF7
M14 = system: M14
NCI-H522 = system: NCI-H522
K562 = system: K562
EKVX = system: EKVX
RPMI-8226 = system: RPMI-8226
OVCAR-4 = system: OVCAR-4
MOLT-4 = system: MOLT-4
MDA-MB-435 = system: MDA-MB-435
SK-MEL-2 = system: SK-MEL-2
SK-MEL-28 = system: SK-MEL-28
LOX IMVI = system: LOX IMVI
OVCAR-3 = system: OVCAR-3
ACHN = system: ACHN
SNB-75 = system: SNB-75
OVCAR-8 = system: OVCAR-8
SN12C = system: SN12C
MDA-N = system: MDA-N
OVCAR-5 = system: OVCAR-5
A549 = system: A549
NCI-H460 = system: NCI-H460
NCI-H23 = system: NCI-H23
UACC-257 = system: UACC-257
SF-539 = system: SF-539
NCI-H226 = system: NCI-H226
UACC-62 = system: UACC-62
HL-60 = system: HL-60
KM12 = system: KM12
SNB-19 = system: SNB-19
NCI/ADR-RES = system: NCI/ADR-RES
SNB-78 = system: SNB-78
DMS-114 = system: DMS-114
DLD-1 = system: DLD-1
LXFL 529 = system: LXFL 529
M19-MEL = system: M19-MEL

O=C1NCN(c2ccccc2)C12CCN(CCCN1CCN(CCOC(c3ccccc3)c3ccccc3)CC1)CC2
GI50 (HOP-92): 1.93 µM (inactive)
GI50 (TK-10): 3.83 µM (inactive)
GI50 (A498): 3.36 µM (inactive)
GI50 (HCC 2998): 0.501 µM (active)
GI50 (HCT-116): 2.33 µM (inactive)
GI50 (HOP-62): 3.25 µM (inactive)
GI50 (Malme-3M): 2.23 µM (inactive)
GI50 (MDA-MB-231): 3.52 µM (inactive)
GI50 (SF-295): 2.69 µM (inactive)
GI50 (BT-549): 3.92 µM (inactive)
GI50 (SR): 0.561 µM (active)
GI50 (UO-31): 1.5 µM (inactive)
GI50 (U-251): 4.07 µM (inactive)
GI50 (SF-268): 2.4 µM (inactive)
GI50 (CCRF-CEM): 0.859 µM (active)
GI50 (RXF 393): 1.5 µM (inactive)
GI50 (Hs-578T): 3.48 µM (inactive)
GI50 (HT-29): 1.11 µM (active)
GI50 (DU-145): 3.59 µM (inactive)
GI50 (PC-3): 3.99 µM (inactive)
GI50 (SK-OV-3): 3.75 µM (inactive)
GI50 (786-0): 0.753 µM (active)
GI50 (T47D): 3.02 µM (inactive)
GI50 (CAKI-1): 3.78 µM (inactive)
GI50 (SK-MEL-5): 1.28 µM (inactive)
GI50 (IGROV-1): 4.03 µM (inactive)
GI50 (HCT-15): 1.86 µM
GI50 (COLO 205): 1.18 µM (inactive)
GI50 (SW-620): 2.62 µM (inactive)
GI50 (MCF7): 3.11 µM (inactive)
GI50 (M14): 1.08 µM (active)
GI50 (NCI-H522): 1.73 µM (inactive)
GI50 (K562): 0.447 µM (active)
GI50 (EKVX): 3.68 µM (inactive)
GI50 (RPMI-8226): 1.67 µM (inactive)
GI50 (OVCAR-4): 3.53 µM (inactive)
GI50 (MOLT-4): 2.13 µM (inactive)
GI50 (MDA-MB-435): 0.923 µM (active)
GI50 (SK-MEL-2): 3.11 µM (inactive)
GI50 (SK-MEL-28): 1.34 µM (inactive)
GI50 (LOX IMVI): 3.01 µM (inactive)
GI50 (OVCAR-3): 3.54 µM (inactive)
GI50 (ACHN): 2.5 µM (inactive)
GI50 (SNB-75): 2.18 µM (inactive)
GI50 (OVCAR-8): 3.33 µM (inactive)
GI50 (SN12C): 3.82 µM (inactive)
GI50 (MDA-N): 0.8 µM (active)
GI50 (OVCAR-5): 5.08 µM (inactive)
GI50 (A549): 4.14 µM (inactive)
GI50 (NCI-H460): 3.84 µM (inactive)
GI50 (NCI-H23): 3.94 µM (inactive)
GI50 (UACC-257): 1.47 µM (inactive)
GI50 (SF-539): 1.25 µM (inactive)
GI50 (NCI-H226): 2.96 µM (inactive)
GI50 (UACC-62): 4.27 µM (inactive)
GI50 (HL-60): 1.18 µM (inactive)
GI50 (KM12): 2.87 µM (inactive)
GI50 (SNB-19): 3.94 µM (inactive)
GI50 (NCI/ADR-RES): 4.54 µM (inactive)

O=C(Oc1cccnc1)c1cc2cc(CCl)ccc2oc1=O
GI50 (HOP-92): 20.6 µM (inactive)
GI50 (TK-10): 20.8 µM (inactive)
GI50 (A498): 48.5 µM (inactive)
GI50 (HCC 2998): 57.7 µM (inactive)
GI50 (HCT-116): 17.7 µM (inactive)
GI50 (HOP-62): 76.2 µM (inactive)
GI50 (Malme-3M): 22.7 µM (inactive)
GI50 (MDA-MB-231): 20.8 µM (inactive)
GI50 (SF-295): > 100 µM (inactive)
GI50 (BT-549): 24.8 µM (inactive)
GI50 (SR): 24 µM (inactive)
GI50 (UO-31): 20 µM (inactive)
GI50 (U-251): 24.3 µM (inactive)
GI50 (SF-268): 20.8 µM (inactive)
GI50 (CCRF-CEM): 20.7 µM (inactive)
GI50 (RXF 393): 16.4 µM (inactive)
GI50 (Hs-578T): 25.4 µM (inactive)
GI50 (HT-29): 17.1 µM (inactive)
GI50 (DU-145): 18.8 µM (inactive)
GI50 (PC-3): 17.3 µM (inactive)
GI50 (SK-OV-3): > 100 µM (inactive)
GI50 (786-0): 18.5 µM (inactive)
GI50 (T47D): 23.3 µM (inactive)
GI50 (CAKI-1): 18.7 µM (inactive)
GI50 (SK-MEL-5): 44.6 µM (inactive)
GI50 (IGROV-1): 25.5 µM (inactive)
GI50 (HCT-15): 23.8 µM
GI50 (COLO 205): 27.2 µM (inactive)
GI50 (SW-620): 35.3 µM (inactive)
GI50 (MCF7): 3.15 µM (inactive)
GI50 (M14): 21.4 µM (inactive)
GI50 (NCI-H522): 17 µM (inactive)
GI50 (K562): 19.5 µM (inactive)
GI50 (EKVX): 21.5 µM (inactive)
GI50 (RPMI-8226): 24.5 µM (inactive)
GI50 (OVCAR-4): 24.3 µM (inactive)
GI50 (MOLT-4): 23.3 µM (inactive)
GI50 (MDA-MB-435): 25.9 µM (inactive)
GI50 (SK-MEL-2): 21.7 µM (inactive)
GI50 (SK-MEL-28): 32.4 µM (inactive)
GI50 (LOX IMVI): 21 µM (inactive)
GI50 (OVCAR-3): 25.5 µM (inactive)
GI50 (ACHN): 18.9 µM (inactive)
GI50 (SNB-75): 29.7 µM (inactive)
GI50 (OVCAR-8): 33.5 µM (inactive)
GI50 (SN12C): 21.6 µM (inactive)
GI50 (MDA-N): 26.5 µM (inactive)
GI50 (OVCAR-5): 22.6 µM (inactive)
GI50 (A549): 65.3 µM (inactive)
GI50 (NCI-H460): 31 µM (inactive)
GI50 (NCI-H23): 19.6 µM (inactive)
GI50 (UACC-257): 30.6 µM (inactive)
GI50 (SF-539): 44.2 µM (inactive)
GI50 (NCI-H226): 66.1 µM (inactive)
GI50 (UACC-62): 8.71 µM (inactive)
GI50 (HL-60): 22.8 µM (inactive)
GI50 (KM12): 31.6 µM (inactive)
GI50 (SNB-19): 61.9 µM (inactive)
GI50 (NCI/ADR-RES): 29.5 µM (inactive)

CC(C)c1cccc(C(C)C)c1NC(=O)C(=O)C(C(=O)c1ccc2ccccc2c1)C1OC(=O)c2ccccc21 (centres undefined)
GI50 (SNB-78): > 100 µM (inactive)
GI50 (HOP-92): 27.9 µM (inactive)
GI50 (DMS-114): > 100 µM (inactive)
GI50 (A498): 34 µM (inactive)
GI50 (HCC 2998): > 100 µM (inactive)
GI50 (HCT-116): > 100 µM (inactive)
GI50 (DLD-1): > 100 µM (inactive)
GI50 (HOP-62): 82.2 µM (inactive)
GI50 (Malme-3M): > 100 µM (inactive)
GI50 (SF-295): > 100 µM (inactive)
GI50 (SR): > 100 µM (inactive)
GI50 (UO-31): 47.8 µM (inactive)
GI50 (U-251): > 100 µM (inactive)
GI50 (SF-268): > 100 µM (inactive)
GI50 (CCRF-CEM): > 100 µM (inactive)
GI50 (RXF 393): 11 µM (inactive)
GI50 (HT-29): > 100 µM (inactive)
GI50 (SK-OV-3): > 100 µM (inactive)
GI50 (786-0): > 100 µM (inactive)
GI50 (LXFL 529): > 100 µM (inactive)
GI50 (CAKI-1): 52.4 µM (inactive)
GI50 (SK-MEL-5): > 100 µM (inactive)
GI50 (IGROV-1): > 100 µM (inactive)
GI50 (HCT-15): > 100 µM
GI50 (COLO 205): > 100 µM (inactive)
GI50 (SW-620): > 100 µM (inactive)
GI50 (M19-MEL): 26.7 µM (inactive)
GI50 (M14): > 100 µM (inactive)
GI50 (NCI-H522): > 100 µM (inactive)
GI50 (K562): > 100 µM (inactive)
GI50 (EKVX): 24.5 µM (inactive)
GI50 (RPMI-8226): > 100 µM (inactive)
GI50 (OVCAR-4): > 100 µM (inactive)
GI50 (MOLT-4): > 100 µM (inactive)
GI50 (SK-MEL-2): > 100 µM (inactive)
GI50 (SK-MEL-28): > 100 µM (inactive)
GI50 (LOX IMVI): > 100 µM (inactive)
GI50 (OVCAR-3): > 100 µM (inactive)
GI50 (ACHN): > 100 µM (inactive)
GI50 (OVCAR-8): > 10 µM (inactive)
GI50 (SN12C): > 100 µM (inactive)
GI50 (OVCAR-5): 26.9 µM (inactive)
GI50 (A549): > 100 µM (inactive)
GI50 (NCI-H460): > 100 µM (inactive)
GI50 (NCI-H23): > 100 µM (inactive)
GI50 (UACC-257): > 100 µM (inactive)
GI50 (SF-539): > 100 µM (inactive)
GI50 (NCI-H226): 19.7 µM (inactive)
GI50 (UACC-62): > 100 µM (inactive)
GI50 (KM12): > 100 µM (inactive)
GI50 (SNB-19): > 100 µM (inactive)
